Series [1] can be described thus: Cmax in Wistar rat at 10 mg/kg, po. In kind it is ADME, organism-based. Also on record: dose 10 mg/kg, route oral. Conditions: in vivo.
Series [2] concerns HTEC. The series can be described thus: Antiinflammatory activity in human HTEC cells assessed as inhibition of 2f-LIGRLO-NH2-induced IL-6 production at 5 to 10 uM after 24 hrs by ELISA. Type of series: functional, cell-based. (In an ELISA, binding on a coated surface is turned into a signal by an enzyme label.)
In series [3] the target is Proteinase-activated receptor 2 (Homo sapiens) (UniProt P55085). The series can be described thus: Antagonist activity at PAR2 in human HT-29 cells assessed as inhibition of 2f-LIGRLO-NH2-induced ca2+ release at 1 uM preincubated for 15 mins measured after 1 hr by FLIPR assay. Type of series: cell-based.
A short description of series [4]: AUC (0 to 6 hrs) in Wistar rat at 10 mg/kg, po. In kind it is ADME, organism-based. Also noted: time < 6 hr, dose 10 mg/kg, route oral. Conditions: in vivo.
In series [5] the target is T1, Proteinase-activated receptor 2 (Homo sapiens, UniProt P55085).
T1 sequence (P55085 whole entry): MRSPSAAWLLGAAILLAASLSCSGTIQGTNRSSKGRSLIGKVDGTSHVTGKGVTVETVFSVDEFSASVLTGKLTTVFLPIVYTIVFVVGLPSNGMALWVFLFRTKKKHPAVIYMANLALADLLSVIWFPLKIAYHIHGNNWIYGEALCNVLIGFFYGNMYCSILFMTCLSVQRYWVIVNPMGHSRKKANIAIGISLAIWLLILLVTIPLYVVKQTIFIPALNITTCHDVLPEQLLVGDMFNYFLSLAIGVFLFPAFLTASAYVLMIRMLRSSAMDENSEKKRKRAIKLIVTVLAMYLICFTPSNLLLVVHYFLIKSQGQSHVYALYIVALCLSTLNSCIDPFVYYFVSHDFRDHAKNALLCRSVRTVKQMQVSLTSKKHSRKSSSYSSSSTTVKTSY
Put plainly: Displacement of europium-labeled 2f-LIGRLO-NH2 from human PAR2 expressed in CHO cells after 1 to 2 hrs. In kind it is cell-based.

The target in series [6] is T2, Proteinase-activated receptor 1 (Homo sapiens) (UniProt P25116).
T2 sequence (whole entry): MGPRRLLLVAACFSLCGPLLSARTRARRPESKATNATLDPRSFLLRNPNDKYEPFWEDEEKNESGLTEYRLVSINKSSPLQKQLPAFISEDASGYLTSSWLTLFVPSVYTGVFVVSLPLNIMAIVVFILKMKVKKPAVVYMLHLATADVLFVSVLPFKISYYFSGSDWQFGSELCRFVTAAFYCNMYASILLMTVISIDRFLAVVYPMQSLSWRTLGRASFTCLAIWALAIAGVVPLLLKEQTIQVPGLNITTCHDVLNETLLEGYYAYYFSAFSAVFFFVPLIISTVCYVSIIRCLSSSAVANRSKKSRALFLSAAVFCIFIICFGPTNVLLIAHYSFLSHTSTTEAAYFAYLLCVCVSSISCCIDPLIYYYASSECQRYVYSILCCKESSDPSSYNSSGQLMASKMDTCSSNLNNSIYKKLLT
Put plainly: Antagonist activity at PAR1 in human PC3 cells assessed as inhibition of alpha-thrombin-induced ca2+ release at 100 uM preincubated for 15 mins measured after 1 hr by FLIPR assay. In kind it is cell-based. The conditions noted are these: PC-3.

Series [7] addresses Proteinase-activated receptor 2 (Homo sapiens) (UniProt P55085). Put plainly: Agonist activity at PAR2 in human HT-29 cells assessed as induction of ca2+ release at 10 uM after 1 hr by FLIPR assay relative to 2f-LIGRLO-NH2. Type of series: cell-based.
Series [8] has as its target T1, Proteinase-activated receptor 2. The series can be described thus: Antagonist activity at PAR2 in human HT-29 cells assessed as inhibition of trypsin-induced ca2+ release preincubated for 15 mins measured after 1 hr by FLIPR assay. Type of series: cell-based.
For series [9], the system named is HTEC. The series can be described thus: Antiinflammatory activity in human HTEC cells assessed as inhibition of 2f-LIGRLO-NH2-induced TNFalpha production at 5 to 10 uM after 24 hrs by ELISA. In kind it is functional, cell-based.
The target in series [10] is T2, Proteinase-activated receptor 1 (Homo sapiens). The series can be described thus: Antagonist activity at PAR1 in human PC3 cells assessed as inhibition of TFLLR-induced ca2+ release at 100 uM preincubated for 15 mins measured after 1 hr by FLIPR assay. Type of series: cell-based. The conditions noted are these: PC-3.
Series [11] concerns the target T1, Proteinase-activated receptor 2. The series can be described thus: Antagonist activity at PAR2 in human HT-29 cells assessed as inhibition of 2f-LIGRLO-NH2-induced ca2+ release preincubated for 15 mins measured after 1 hr by FLIPR assay. In kind it is cell-based.
Series [12] deals with Rattus norvegicus. Put plainly: Antiinflammatory activity in Wistar rat assessed as inhibition of 2f-LIGRLO-NH2-induced paw edema at 10 mg/kg, po dosed 120 mins before 2f-LIGRLO-NH2 stimulation. In kind it is functional, organism-based.
Series [13] relates to Rattus norvegicus. The series can be described thus: Antiinflammatory activity in Wistar rat assessed as inhibition of 2f-LIGRLO-NH2-induced paw edema at 5 mg/kg, sc dosed 120 mins before 2f-LIGRLO-NH2 stimulation. In kind it is functional, organism-based.
A short description of series [14]: Tmax in Wistar rat at 10 mg/kg, po. In kind it is ADME, organism-based. Conditions: in vivo.

Active and inactive are the calls of the source. The calls are words filed in the database; no cut-off is given here.

As a reminder, the Cmax is the peak of the concentration-time curve. For orientation: inhibition means how much of the control response was suppressed. Usually AUC(0-t) stands for the area under the concentration-time curve up to a stated or last time point. Low readings indicate less exposure, high ones more exposure. For orientation: Tmax means the time at which the peak concentration occurs. As for `CC[C@H](C)[C@H](NC(=O)[C@H](CC1CCCCC1)NC(=O)c1ccno1)C(=O)NCc1ccccc1OC`, the Cmax in series [1] worked out at 510 nM. Besides, the inhibition result in [2], in series [9] and in series [13] was “Active” throughout. Moreover, the inhibition in series [3] amounted to 100%. In addition, the AUC(0-t) at 6 h in [4] was determined as 444 ng·h/mL. The results for the IC50 in [5], in series [8] (read-out: pIC50 (converted)) and in [11] (read-out: IC50) were 4500 nM, 2000 nM and 500 nM, respectively. Also, the inhibition entry in series [6], in series [10] and in series [12] was “inactive” in each case. For the same compound, the Activity in [7] was 20%. For the same compound, the Tmax in [14] is 2.63 h.
As for `CCCCOc1ccccc1CNC(=O)[C@@H](NC(=O)[C@H](CC1CCCCC1)NC(=O)c1ccno1)[C@@H](C)CC`, in [3], the inhibition worked out at 8%. Moreover, in [7], the Activity was determined as 1%.
With `CC[C@H](C)[C@H](NC(=O)[C@H](CC1CCCCC1)NC(=O)c1ccno1)C(=O)NC1C2CC3CC(C2)CC1C3` (stereo partly specified), the inhibition in series [3] was found to be 29%. Also, in series [7], the Activity came to 26%.
For `CC[C@H](C)[C@H](NC(=O)[C@H](CC1CCCCC1)NC(=O)c1ccno1)C(=O)N(CC(C)C)CC(C)C` the same measures were 0% and 1%.
On to `CCC(C)Oc1ccccc1CNC(=O)[C@@H](NC(=O)[C@H](CC1CCCCC1)NC(=O)c1ccno1)[C@@H](C)CC` (stereo partly specified), for which the inhibition in series [3] was found to be 53%. Besides, the Activity in [7] came out at 6%. Also, the IC50 in series [11] (read-out: IC50) is 1000 nM; in [11] (read-out: pIC50 (converted)) it was 1260 nM.
As to `CC[C@H](C)[C@H](NC(=O)[C@H](CC1CCCCC1)NC(=O)c1ccno1)C(=O)NCc1cccc2ccccc12`, the inhibition in series [3] came to 12%. Also, the Activity in series [7] was 2%.
In the case of `CC[C@H](C)[C@H](NC(=O)[C@H](CC1CCCCC1)NC(=O)c1ccno1)C(=O)NCc1ccccc1C(F)(F)F`, in series [3], the inhibition was determined as 57%. Moreover, the Activity in series [7] worked out at 42%.
For `CC[C@H](C)[C@H](NC(=O)[C@H](CC1CCCCC1)NC(=O)c1ccno1)C(=O)NCCc1ccc(OC)c(OC)c1` the same measures were 32% and 39%.
For `CC[C@H](C)[C@H](NC(=O)[C@H](CC1CCCCC1)NC(=O)c1ccno1)C(=O)NCc1ccc(F)cc1` the same measures were 82% and 28%.
For `CC[C@H](C)[C@H](NC(=O)[C@H](CC1CCCCC1)NC(=O)c1ccno1)C(=O)NCc1cccc(OC)c1` the same measures were 98% and 32%.
Consider `CC[C@H](C)[C@H](NC(=O)[C@H](CC1CCCCC1)NC(=O)c1ccno1)C(=O)NCc1nc2ccccc2[nH]1`, for which, in [7], the Activity was found to be 86%.
Regarding `CC[C@H](C)[C@H](NC(=O)[C@H](CC1CCCCC1)NC(=O)c1ccno1)C(=O)NCc1cccc2c1OCO2`, the inhibition in series [3] is 90%. In addition, in series [7], the Activity was determined as 46%.
For `CC[C@H](C)[C@H](NC(=O)[C@H](CC1CCCCC1)NC(=O)c1ccno1)C(=O)NCc1ccccc1F` the same measures were 93% and 40%.
For the compound `CC[C@H](C)[C@H](NC(=O)[C@H](CC1CCCCC1)NC(=O)c1ccno1)C(=O)N1CCC2(C=Cc3ccccc32)CC1`, the Cmax in [1] is 1970 nM. Moreover, the inhibition in series [3] came to 54%. For the same compound, the AUC(0-t) at 6 h in series [4] was found to be 3420 ng·h/mL. The inhibition entry in series [6] and in series [10] was “inactive” throughout. Also, in series [7], the Activity came to 16%. Also, the figures for the IC50 in series [8] (read-out: IC50) and in series [11] (read-out: pIC50 (converted)) were 9600 nM and 1260 nM, respectively. In addition, the inhibition result in series [12] and in [13] was “Active” throughout. The Tmax in [14] is 2.78 h.
`CC[C@H](C)[C@H](NC(=O)[C@H](CC1CCCCC1)NC(=O)c1ccno1)C(=O)NCc1ccccc1`: in series [3], the inhibition came to 76%. Also, the Activity in [7] stood at 23%.
For `CCOc1ccccc1CNC(=O)[C@@H](NC(=O)[C@H](CC1CCCCC1)NC(=O)c1ccno1)[C@@H](C)CC` the same measures were 71% and 29%.
For `CC[C@H](C)[C@H](NC(=O)[C@H](CC1CCCCC1)NC(=O)c1ccno1)C(=O)NCc1cccc(-c2ccccc2)c1` the same measures were 17% and 5%.
For `CC[C@H](C)[C@H](NC(=O)[C@H](CC1CCCCC1)NC(=O)c1ccno1)C(=O)N(C)Cc1ccccc1` the same measures were 7% and 7%.
In the case of `CC[C@H](C)[C@H](NC(=O)[C@H](CC1CCCCC1)NC(=O)c1ccno1)C(=O)NCc1ccccn1`, in series [7], the Activity turned out to be 83%.
Turning to `CC[C@H](C)[C@H](NC(=O)[C@H](CC1CCCCC1)NC(=O)c1ccno1)C(=O)NNc1ccccc1`, the inhibition in series [3] stood at 33%. In addition, the Activity in series [7] came out at 41%.
For `CC[C@H](C)[C@H](NC(=O)[C@H](CC1CCCCC1)NC(=O)c1ccno1)C(=O)NCc1ccccc1OC(C)C` the same measures were 67% and 38%.
For `CC[C@H](C)[C@H](NC(=O)[C@H](CC1CCCCC1)NC(=O)c1ccno1)C(=O)NCc1ccccc1Cl` the same measures were 85% and 43%.
For `CC[C@H](C)[C@H](NC(=O)[C@H](CC1CCCCC1)NC(=O)c1ccno1)C(=O)NCc1ccc2c(c1)OCO2` the same measures were 84% and 33%.
Take `CC[C@H](C)[C@H](NC(=O)[C@H](CC1CCCCC1)NC(=O)c1ccno1)C(=O)NCc1ccncc1`: in series [7], the Activity stood at 87%.
With `CC[C@H](C)[C@H](NC(=O)[C@H](CC1CCCCC1)NC(=O)c1ccno1)C(=O)NCc1cccc(F)c1`, the inhibition in series [3] is 74%. Besides, in [7], the Activity worked out at 28%.
For `CC[C@H](C)[C@H](NC(=O)[C@H](CC1CCCCC1)NC(=O)c1ccno1)C(=O)N(C)Cc1ccccc1OC` the same measures were 27% and 20%.
For `CC[C@H](C)[C@H](NC(=O)[C@H](CC1CCCCC1)NC(=O)c1ccno1)C(=O)NCc1cccc(OC(F)(F)F)c1` the same measures were 18% and 44%.
For `CC[C@H](C)[C@H](NC(=O)[C@H](CC1CCCCC1)NC(=O)c1ccno1)C(=O)NCc1ccc(OC)cc1` the same measures were 95% and 51%.
Regarding `CC[C@H](C)[C@H](NC(=O)[C@H](CC1CCCCC1)NC(=O)c1ccno1)C(=O)NCc1ccccc1[N+](=O)[O-]`, the inhibition in series [3] is 94%. Further, in series [7], the Activity worked out at 45%.
For `CC[C@H](C)[C@H](NC(=O)[C@H](CC1CCCCC1)NC(=O)c1ccno1)C(=O)NCc1ccccc1-c1ccccc1` the same measures were 0% and 1%.
With `CC[C@H](C)[C@H](NC(=O)[C@H](CC1CCCCC1)NC(=O)c1ccno1)C(=O)NCc1ccc(-c2ccccc2)cc1`, in [3], the inhibition turned out to be 0%. In addition, the Activity in series [7] came to 6%.
For `CC[C@H](C)[C@H](NC(=O)[C@H](CC1CCCCC1)NC(=O)c1ccno1)C(=O)NCc1ccccc1C` the same measures were 74% and 29%.
In the case of `CCCOc1ccccc1CNC(=O)[C@@H](NC(=O)[C@H](CC1CCCCC1)NC(=O)c1ccno1)[C@@H](C)CC`, the inhibition in series [3] amounted to 34%. In addition, the Activity in series [7] worked out at 1%.
